ChEMBL document CHEMBL2311480, “Inhibitors of apoptosis in testicular germ cells: synthesis and biological evaluation of some novel IBTs bearing sulfonamide moiety” (2013)

Assay: Inhibition of malathion-induced apoptosis in goat testicular germ cells assessed as cell survival at 10 uM (malathion treated control = 41 +/- 6.24%)
Format: functional
Conditions: Capra hircus; read-out: Survival

NS(=O)(=O)c1ccc2c(c1)sc1nc(-c3ccccc3)cn12
viability at 10 µM: 50%

Cc1ccc(-c2cn3c(n2)sc2cc(S(N)(=O)=O)ccc23)cc1
viability at 10 µM: 64%

NS(=O)(=O)c1ccc2c(c1)sc1nc(-c3ccc(F)cc3)cn12
viability at 10 µM: 43%

NS(=O)(=O)c1ccc2c(c1)sc1nc(-c3ccc(Cl)cc3)cn12
viability at 10 µM: 56%

NS(=O)(=O)c1ccc2c(c1)sc1nc(-c3ccc(Br)cc3)cn12
viability at 10 µM: 52%

NS(=O)(=O)c1ccc2c(c1)sc1nc(-c3ccc([N+](=O)[O-])cc3)cn12
viability at 10 µM: 39%

NS(=O)(=O)c1ccc2c(c1)sc1nc(-c3cc4ccccc4oc3=O)cn12
viability at 10 µM: 46%

NS(=O)(=O)c1ccc2c(c1)sc1nc(-c3cc4cc(Cl)ccc4oc3=O)cn12
viability at 10 µM: 61%

NS(=O)(=O)c1ccc2c(c1)sc1nc(-c3cc4cc(Br)ccc4oc3=O)cn12
viability at 10 µM: 48%

CCOC(=O)CC(SP(=S)(OC)OC)C(=O)OCC (stereo not given) [MALATHION]
viability at 10 µM: 41%
